Among the data in patent publication US20090318424A1, “NOVEL COMPOUNDS” (priority 2006, published 2009) are melting point values, retold here.

The term melting point denotes the temperature of the solid-liquid transition. For `Cc1ccc(NC(=O)c2ccsc2)cc1-c1nc(N(C)C)nc2c1CNC(=O)N2c1c(F)cccc1F` [Example 12, N-{3-[8-(2,6-difluorophenyl)-2-(dimethylamino)-7-oxo-5,6,7,8-tetrahydropyrimido[4,5-d]pyrimidin-4-yl]-4-methylphenyl}-3-thiophenecarboxamide], the melting point fell in the range of 214 to 215 °C.

Turning to `CCOc1nc(-c2cc(NC(=O)c3ccsc3)ccc2C)c2c(n1)N(c1c(F)cccc1F)C(=O)NC2` [Example 13, N-{3-[8-(2,6-difluorophenyl)-2-(ethyloxy)-7-oxo-5,6,7,8-tetrahydropyrimido[4,5-d]pyrimidin-4-yl]-4-methylphenyl}-3-thiophenecarboxamide], the melting point was 199 to 202 °C (dec.).

Take `CNc1nc(-c2cc(NC(=O)c3ccsc3)ccc2C)c2c(n1)N(c1c(F)cccc1F)C(=O)NC2` [Example 14, N-{3-[8-(2,6-difluorophenyl)-2-(methylamino)-7-oxo-5,6,7,8-tetrahydropyrimido[4,5-d]pyrimidin-4-yl]-4-methylphenyl}-3-thiophenecarboxamide]: the melting point was 203 to 207 °C (dec.).

`Cc1ccc(C(=O)NCc2ccccc2)cc1-c1nc(NC2CC(C)(C)NC(C)(C)C2)nc2c1CNC(=O)N2c1c(F)cccc1F` [Example 16, 3-{8-(2,6-Difluorophenyl)-7-oxo-2-[(2,2,6,6-tetramethyl-4-piperidinyl)amino]-5,6,7,8-tetrahydropyrimido[4,5-d]pyrimidin-4-yl}-4-methyl-N-(phenylmethyl)benzamide]: the melting point was 160 to 165 °C (dec.).

`Cc1ccc(C(=O)NCc2ccccc2)cc1-c1nc(NCCN(C)C)nc2c1CNC(=O)N2c1c(F)cccc1F` [Example 18, 3-(8-(2,6-Difluorophenyl)-2-{[2-(dimethylamino)ethyl]amino}-7-oxo-5,6,7,8-tetrahydropyrimido[4,5-d]pyrimidin-4-yl)-4-methyl-N-(phenylmethyl)benzamide] returned a melting point of 148 to 150 °C.

`Cc1ccc(C(=O)NCc2ccccc2)cc1-c1nc(NCCNC(C)C)nc2c1CNC(=O)N2c1c(F)cccc1F` [Example 20, 3-[8-(2,6-Difluorophenyl)-2-({2-[(1-methylethyl)amino]ethyl}amino)-7-oxo-5,6,7,8-tetrahydropyrimido[4,5-d]pyrimidin-4-yl]-4-methyl-N-(phenylmethyl)benzamide] registered a melting point of 133 to 137 °C.

Regarding `Cc1ccc(C(=O)NCc2ccccc2)cc1-c1nc(NC2CCN(C)CC2)nc2c1CNC(=O)N2c1c(F)cccc1F` [Example 22, 3-{8-(2,6-Difluorophenyl)-2-[(1-methyl-4-piperidinyl)amino]-7-oxo-5,6,7,8-tetrahydropyrimido[4,5-d]pyrimidin-4-yl}-4-methyl-N-(phenylmethyl)benzamide], the melting point is 152 to 154 °C (dec.).

`CCOc1nc(-c2cc(NC(=O)c3ccc(C)c(F)c3)ccc2C)c2c(n1)N(c1c(F)cccc1F)C(=O)NC2` [Example 25, N-{3-[8-(2,6-difluorophenyl)-2-(ethyloxy)-7-oxo-5,6,7,8-tetrahydropyrimido[4,5-d]pyrimidin-4-yl]-4-methylphenyl}-3-fluoro-4-methylbenzamide] showed a melting point of 257.3 to 262.5 °C.

In turn, `Cc1ccc(C(=O)Nc2ccc(C)c(-c3nc(NC4CCNCC4)nc4c3CNC(=O)N4c3c(F)cccc3F)c2)cc1F` [Example 27(b), N-{3-[8-(2,6-difluorophenyl)-7-oxo-2-(4-piperidinylamino)-5,6,7,8-tetrahydropyrimido[4,5-d]pyrimidin-4-yl]-4-methylphenyl}-3-fluoro-4-methylbenzamide] showed a melting point of 218 to 223.5 °C.

Consider `Cc1ccc(C(=O)NCc2ccccc2)cc1-c1nc(N2CCC(N(C)C(=O)OC(C)(C)C)CC2)nc2c1CNC(=O)N2c1c(F)cccc1F` [Example 147, 1,1-dimethylethyl {-[8-(2,6-difluorophenyl)-4-(2-methyl-5-{[(phenylmethyl)amino]carbonyl}phenyl)-7-oxo-5,6,7,8-tetrahydropyrimido[4,5-d]pyrimidin-2-yl]-4-piperidinyl}methylcarbamate], for which the melting point is 146 to 150 °C (dec.).

As for `Cc1ccc(C(=O)N(C)C)cc1-c1nc(NCCN(C)C)nc2c1CNC(=O)N2c1c(F)cccc1F` [Example 152, 3-(8-(2,6-difluorophenyl)-2-{[2-(dimethylamino)ethyl]amino}-7-oxo-5,6,7,8-tetrahydropyrimido[4,5-d]pyrimidin-4-yl)-NN,4-trimethylbenzamide], the melting point fell in the range of 138 to 142 °C.

As for `Cc1ccc(C(=O)N(C)C)cc1-c1nc(NCCNC(C)C)nc2c1CNC(=O)N2c1c(F)cccc1F` [Example 153, 3-[8-(2,6-difluorophenyl)-2-({2-[(1-methylethyl)amino]ethyl}amino)-7-oxo-5,6,7,8-tetrahydropyrimido[4,5-d]pyrimidin-4-yl]-N,N,4-trimethylbenzamide], the melting point lay in the range of 130 to 133 °C.

Compound `Cc1ccc(C(=O)N(C)C)cc1-c1nc(N(C)CCCN(C)C)nc2c1CNC(=O)N2c1c(F)cccc1F` [Example 154, 3-{8-(2,6-difluorophenyl)-2-[[3-(dimethylamino)propyl](methyl)amino]-7-oxo-5,6,7,8-tetrahydropyrimido[4,5-d]pyrimidin-4-yl}-N,N,4-trimethylbenzamide] registered a melting point of 114 to 118 °C.

In turn, `Cc1ccc(C(=O)N(C)C)cc1-c1nc(NC2CCN(C)CC2)nc2c1CNC(=O)N2c1c(F)cccc1F` [Example 155, 3-{8-(2,6-difluorophenyl)-2-[(1-methyl-4-piperidinyl)amino]-7-oxo-5,6,7,8-tetrahydropyrimido[4,5-d]pyrimidin-4-yl}-N,N,4-trimethylbenzamide] had a melting point of 163 to 165 °C.

Take `CCN(CC)C(=O)c1ccc(C)c(-c2nc(NC3CCN(C)CC3)nc3c2CNC(=O)N3c2c(F)cccc2F)c1` [Example 159, 3-{8-(2,6-difluorophenyl)-2-[(1-methyl-4-piperidinyl)amino]-7-oxo-5,6,7,8-tetrahydropyrimido[4,5-d]pyrimidin-4-yl}-N,N-diethyl-4-methylbenzamide]: the melting point was 165 to 169 °C.

`CCN(CC)C(=O)c1ccc(C)c(-c2nc(NCCNC(C)C)nc3c2CNC(=O)N3c2c(F)cccc2F)c1` [Example 160, 3-[8-(2,6-difluorophenyl)-2-({2-[(1-methylethyl)amino]ethyl}amino)-7-oxo-5,6,7,8-tetrahydropyrimido[4,5-d]pyrimidin-4-yl]-N,N-diethyl-4-methylbenzamide] yielded a melting point of 89 to 91 °C.

In turn, `CCN(CC)C(=O)c1ccc(C)c(-c2nc(N(C)CCCN(C)C)nc3c2CNC(=O)N3c2c(F)cccc2F)c1` [Example 161, 3-{8-(2,6-difluorophenyl)-2-[[3-(dimethylamino)propyl](methyl)amino]-7-oxo-5,6,7,8-tetrahydropyrimido[4,5-d]pyrimidin-4-yl}-N,N-diethyl-4-methylbenzamide] gave a melting point of 106 to 108 °C.

Take `CCN(CC)C(=O)c1ccc(C)c(-c2nc(N3CCN(C)CC3)nc3c2CNC(=O)N3c2c(F)cccc2F)c1` [Example 162, 3-[8-(2,6-difluorophenyl)-2-(4-methyl-1-piperazinyl)-7-oxo-5,6,7,8-tetrahydropyrimido[4,5-d]pyrimidin-4-yl]-N,N-diethyl-4-methylbenzamide]: the melting point was 201 to 205 °C (dec.).

As for `CNC(=O)c1ccc(C)c(-c2nc(NCCN(C)C)nc3c2CNC(=O)N3c2c(F)cccc2F)c1` [Example 163(c), 3-(8-(2,6-difluorophenyl)-2-{[2-(dimethylamino)ethyl]amino}-7-oxo-5,6,7,8-tetrahydropyrimido[4,5-d]pyrimidin-4-yl)-N,4-dimethylbenzamide], the melting point is 155 to 158 °C (dec.).

As for `CNC(=O)c1ccc(C)c(-c2nc(NCCNC(C)C)nc3c2CNC(=O)N3c2c(F)cccc2F)c1` [Example 167, 3-[8-(2,6-difluorophenyl)-2-({2-[(1-methylethyl)amino]ethyl}amino)-7-oxo-5,6,7,8-tetrahydropyrimido[4,5-d]pyrimidin-4-yl]-N,4-dimethylbenzamide], the melting point was 136 to 139 °C (dec.).

Turning to `CNC(=O)c1ccc(C)c(-c2nc(NCCCNC(C)C)nc3c2CNC(=O)N3c2c(F)cccc2F)c1` [Example 168, 3-[8-(2,6-difluorophenyl)-2-({3-[(1-methylethyl)amino]propyl}amino)-7-oxo-5,6,7,8-tetrahydropyrimido[4,5-d]pyrimidin-4-yl]-N,4-dimethylbenzamide], the melting point is 153 to 157 °C (dec.).

As for `CNC(=O)c1ccc(C)c(-c2nc(N3CCN(C)CC3)nc3c2CNC(=O)N3c2c(F)cccc2F)c1` [Example 169, 3-[8-(2,6-difluorophenyl)-2-(4-methyl-1-piperazinyl)-7-oxo-5,6,7,8-tetrahydropyrimido[4,5-d]pyrimidin-4-yl]-N,4-dimethylbenzamide], the melting point is 164 to 168 °C (dec.).

Take `CNC(=O)c1ccc(C)c(-c2nc(NCCCNC(C)(C)C)nc3c2CNC(=O)N3c2c(F)cccc2F)c1` [Example 170, 3-[8-(2,6-difluorophenyl)-2-({3-[(1,1-dimethylethyl)amino]propyl}amino)-7-oxo-5,6,7,8-tetrahydropyrimido[4,5-d]pyrimidin-4-yl]-N,4-dimethylbenzamide]: the melting point is 166 to 170 °C (dec.).

`CCCCN(CCCC)CCCNc1nc(-c2cc(C(=O)NC)ccc2C)c2c(n1)N(c1c(F)cccc1F)C(=O)NC2` [Example 171, 3-[2-{[3-(dibutylamino)propyl]amino}-8-(2,6-difluorophenyl)-7-oxo-5,6,7,8-tetrahydropyrimido[4,5-d]pyrimidin-4-yl]-N,4-dimethylbenzamide] had a melting point of 112 to 115 °C.

As for `CNC(=O)c1ccc(C)c(-c2nc(NC3CCN(C)CC3)nc3c2CNC(=O)N3c2c(F)cccc2F)c1` [Example 173, 3-{8-(2,6-difluorophenyl)-2-[(1-methyl-4-piperidinyl)amino]-7-oxo-5,6,7,8-tetrahydropyrimido[4,5-d]pyrimidin-4-yl}-N,4-dimethylbenzamide], the melting point is 205 to 209 °C (dec.).
